In patent US8399440B2, “Disease modifying anti-arthritic activity of 2-methoxyestradiol” (EntreMed, Inc., priority 2006, dated 2013):

Columns and labels:
[1] = system: lymph node cells from rats with AA; assay: Lymph node cell proliferation in vitro (3H-thymidine incorporation)
Protocol: Because of the effect of 2ME2 treatment on arthritis severity and the response in the spleen during AA, the T lymphocyte reactivity to mitogens the Mycobacterial purified protein derivative (PPD) antigen was evaluated. […] The effect of various concentrations of 2ME2 in vitro on this proliferative response was evaluated. […] To further assess the effect of 2ME2 on lymphocyte responsiveness, lymph node cells harvested from rats treated with 2ME2 (30 mg/kg/d) from day 6-14 post-immunization were tested for proliferative response to PPD and the mitogens, Con A and PHA and compared to lymphocytes from vehicle-treated animals.

synovial microvessels = assay: Synovial vascularity by laminin immunostaining; assay type: in vivo, Rat (Lewis); details: between the various treatment groups and vehicle, any vessel size
Protocol: (§1) Tissue samples, including joints, were fixed in 10% phosphate-buffered formalin or AFA fixative ([…], 2% formalin, 5% glacial acetic acid, 20% water), the latter for immunostaining. Samples were then decalcified in formic or acetic acid and paraffin embedded. Sections (5 μm) were stained with hematoxylin-eosin (H&E) using routine techniques. To stain cartilage proteoglycan, separate sections were stained with safranin O (Difco, Detroit, Mich.) for 1 min. as described previously (Issekutz, (2001). To assess microvessel density in the synovium, rabbit anti-mouse laminin polyclonal IgG antibody (Cedarlane Laboratories Limited, Homby, ON) was used to outline vessels, with detection using biotinylated goat anti-rabbit IgG antibody and avidin-biotin complexed with HRPO according to manufacturer's recommendations (Vectastain Elite ABC kit; Vector Laboratories Canada Inc., Burlington, ON).
To assess synovial vascularity and angiogenesis, sections were immunostained for laminin to reliably delineate microvessels as well as medium-sized vessels. […] The other commonly used endothelial cell marker, CD31, was also evaluated on the synovial tissue. […] This vascularity was quantitated in synovia from rats treated with the various protocols and compared to vehicle-treated animals. […] Only vessels that were in cross-section were scored. […]

[2] = system: joint synovium and articular cartilage; assay: Joint histology and cartilage damage (H&E, safranin O); assay type: in vivo, Rat (Lewis)
Protocol: as §1
Even by the H&E staining the cartilage damage is visible on the articular surfaces and margins. This is more profoundly illustrated by the safranin O staining with marked focal proteoglycan loss and fragmentation.

[3] = system: Adjuvant-Induced Arthritis (Adoptive Transfer Model); assay: Adjuvant-induced arthritis, adoptive transfer model; assay type: in vivo, Rat (Lewis); details: Dalhousie Study #2; 3, 30 mg/kg/d SC
[4] = system: PMNL migration to arthritic joints; assay: 51Cr-labeled PMNL migration to arthritic joints; assay type: in vivo, Rat (Lewis)
Description: Rat blood PMNL were isolated from a donor arthritic rat by hydroxyethyl starch (Hespan; Dupont Merck, Wilmington, Del.) exchange transfusion performed through a needle inserted in a femoral vein. The exchanged blood was collected into heparin and acid-citrate-dextrose (ACD, formula A; Fenwal-Travenol, Malton, ON) and the leukocyte-rich plasma was harvested during 1 g sedimentation of red blood cells. The PMNL were then isolated by centrifugation on discontinuous Percoll density gradients of 63% Percoll above 74% Percoll with 10% autologous plasma and calcium and magnesium-free Tyrode's solution (TyS^−/−) for the balance of the suspending medium. After centrifugation (350×g, 30 min at 22° C.) the purified PMNL (>95%) were harvested from the layer above the 74% plasma-Percoll cushion and after washing with TyS^−/−−10% plasma, the cells were radiolabeled with 75 μCi/5×10^7 cells of Na2^51CrO4 (GE Healthcare Bio-Sciences Inc., Baie d'Urfé, QC). After the cells were washed, they were injected i.v. into rats at a dose of 10^7 51Cr-labeled PMNL per animal bearing approximately 1-2×10^5 cpm. These cells were allowed to circulate and migrate for 2 h prior to sacrifice of the rats.
At the time the rats were killed, cardiac blood was obtained to measure the blood leukocyte count and the leukocyte and plasma associated radioactivity. Joints were dissected and segments of limbs sectioned to include carpal, metacarpal, talar and metatarsal joints for analysis as previously reported (Issekutz et al. Lab Invest. (1991), 64:656-63 and Issekutz et al. Arthritis Rheum. (2001), 44:1428-37). The content of ^51Cr in the joints, as well as in dermal skin sites and internal organs, was determined with a Wallac LKB 1280 gamma counter (Fisher Scientific, Nepean, ON). Accumulated isotope in the tissue was expressed as cpm/10^6 cpm injected i.v.

[5] = system: Adjuvant-Induced Arthritis; assay: Adjuvant arthritis, clinical arthritis severity; assay type: in vivo, Rat (Lewis); details: for arthritis severity (clinical score) by day 14, mean: vehicle reached score 11
spleen = assay: Splenomegaly and spleen histology in adjuvant arthritis; assay type: in vivo, Rat (Lewis)
Protocol: During the course of AA in the rat, splenomegaly is a prominent feature due to splenitis, lymphoid hyperplasia and even abscess formation. Therefore the splenic enlargement in these animals was monitored for any effect of 2ME2 on this parameter. In rats that were treated with vehicle, spleen weights increased dramatically, increasing nearly three-fold.
A histological examination of the spleens was undertaken in the different groups. The appearance of a normal rat spleen (A) and vehicle-treated spleen (B).

endothelial cell = assay: Endothelial cell proliferation in vitro
[6] = system: Arthrogen Collagen MAb-Induced Arthritis; assay: Arthrogen collagen MAb-induced arthritis (Arthrogen-CIA model of RA); assay type: in vivo, Mouse (Balb/C)
[7] = system: Collagen-Induced Arthritis; assay: Collagen-induced arthritis (UCLA studies); assay type: in vivo, Rat (Louvain)
[8] = Dalhousie Study #1, 30, 100 mg/kg/d PO

## COc1cc2c(cc1O)CC[C@@H]1[C@@H]2CC[C@]2(C)[C@@H](O)CC[C@@H]12 [2ME2, 2-methoxyestradiol]
[1]; 2ME2 added on day of culture initiation, 6 days
  IC50, lymphocyte response to PPD: about 0.3 μg/mL
[1]; all cultures
  viability: ≥ 85 % live cells
[1]; in vitro
  spontaneous proliferation in unstimulated cultures: decreased
[1]; in vitro, compared with effect on PPD response
  proliferation induced by the mitogens (Con A, PHA): comparable inhibitory effect
[1]; lymph node cell cultures
  effect on viability: no effect on viability
Synovial microvessels
  vessel density per 0.8 mm^2 (small, medium, large vessels) in synovium: no significant difference
[2]; 100 mg/kg/d initiated at day 6 post-immunization
  articular cartilage surfaces and proteoglycan staining: preservation of articular cartilage surfaces and proteoglycan staining
[2]; 100 mg/kg/d initiated at day 6 post-immunization, compared to vehicle
  leukocyte infiltration of the synovium: less intense leukocyte infiltration
[2]; treatment delayed to day 10
  cartilage preservation: cartilage preservation was still observed
  leukocyte cellularity in the synovium: less noticeably affected
[3]
  inhibition of clinical arthritic score, inflammation, and bone destruction: Dose dependent
[4]; 100 or 30 mg/kg/d initiated at day 6 (preclinical phase)
  accumulation of 51Cr-labeled PMNL in hind limb joints: significantly decreased
[4]; [8]
  immune cell migration to the joint: Blocked
[4]; delayed treatment starting on day 10, tendency for a decrease
  accumulation of 51Cr-labeled PMNL in joints: did not reach significance
[5]; 30 mg/kg/d i.p. initiated day 6 post-immunization
  arthritis severity (clinical score) by day 14, mean: 7.4
[5]; 30 mg/kg/d initiated on day 10 post-immunization
  modification of arthritis severity: did not reach statistical significance
[5]; 100 mg/kg/d i.p. initiated day 6 post-immunization
  arthritis severity (clinical score) by day 14, mean: 6.5
[5]; 100 mg/kg/d initiated at onset of clinical arthritis, day 10 post-immunization
  arthritis severity: attenuation of arthritis severity
spleen; 30 mg/kg/d from day 6-14 post-immunization, no increase in giant cells or abscess formation, no lymphoid hyperplasia
  spleen histology: Only mild splenitis
spleen; 30 mg/kg/d started on day 6 post-immunization
  increase in spleen weight (splenic enlargement): completely inhibited
spleen; [8]
  splenic abscess formation, giant cells, and lymphoid hyperplasia: Decreased
spleen; high dose (100 mg/kg/d) started on day 6 post-immunization
  increase in spleen weight (splenic enlargement): completely inhibited
spleen; treatment initiated at day 10
  splenic enlargement: markedly inhibited
Endothelial cell; optimal serum and endothelial cell growth supplements
  IC50, endothelial cell proliferation: approximately 0.5 μg/mL
Endothelial cell; optimal serum and growth supplements versus restricted
  concentration required for inhibition under optimal versus restricted growth conditions: two-fold higher concentration
Endothelial cell; read-out: IC50, endothelial cell proliferation, optimal serum and endothelial cell growth supplements
  IC50: ~1500 nM
Endothelial cell; restricted serum and growth factor
  concentration giving significant inhibition of endothelial cell proliferation: 0.25 µg/mL
[6]; FIG. 1
  arthritic score: decreases
[6]; FIG. 2, 100 mg/kg versus control
  synovial inflammation: inhibits
[6]; FIG. 3, 100 mg/kg versus control
  periarticular inflammatory infiltrate and fibrosis: inhibition
[6]; FIG. 4, 100 mg/kg versus control
  loss of proteoglycan in articular cartilage and induction of osteoclast activity: prevents
[6]; FIG. 5
  severity of RA progression: inhibit
[6]; FIG. 7, 2ME2 in combination with methotrexate
  percent inhibition of arthritic score: unexpected increase
[6]; FIG. 8
  radiographic assessment: radiographic evidence of 2ME2's anti-rheumatic effect
[6]; Study SMP04-040, 1, 10, 100 mg/kg/d PO, prevention (start 1 day after induction), Panzem NCD formulation
  inhibition of clinical arthritic score, inflammation, cartilage degradation, bone resorption, and pannus formation: Dose-dependent
[6]; Study SMP05-009, 100 mg/kg/d, 100 mg/kg/week, 100 mg/kg twice a week PO, prevention
  inhibition of clinical arthritic score, inflammation, cartilage degradation, bone resorption, and pannus formation: Regimen-
[6]; Study SMP05-010, 10, 25, 50, 75, 100 mg/kg/d PO, prevention
  inhibition of clinical arthritic score, inflammation, cartilage degradation, bone resorption, and pannus formation: Dose-dependent
[6]; Study SMP05-046, 2ME2 10 or 100 mg/kg/d PO combined with MTX 0.1 or 1 mg/kg/d IP, prevention
  inhibition of clinical arthritic score upon combination of the two drugs: Additive
[6]; Study SMP05-046, 2ME2 PO in combination with MTX IP
  pathology in the liver: No pathology
[6]; Study SMP05-046, either drug alone (2ME2 10 or 100 mg/kg/d PO; MTX 0.1 or 1 mg/kg/d IP)
  pathology in the liver: No pathology
[7]; UCLA Study #1, PO
  onset of disease: Delays onset
[7]; UCLA Study #1, prevention 30, 100 mg/kg/d PO, treatment 10, 30, 100 mg/kg/d PO
  inhibition of clinical arthritic score and bone erosion: Dose dependent
[7]; UCLA Study #2, treatment from day 10, 50 mg/kg BID, 100 or 300 mg/kg/d PO or 60 mg/kg/d SC osmotic pumps
  inhibition of clinical arthritic score, inflammation, and bone erosion, cartilage degradation and pannus formation: Dose dependent
